# Results: patent publication US11858958B2, “Blank liposome with ginsenoside Rg3 or its analog as membrane materials and preparations and uses thereof” (Shanghai Ginsome Pharmatech Co., Ltd., priority 2018, dated 2024)
# Key:
# [1] = tested on: rat C6 glioma cells; experiment: In vitro drug efficiency assay, survival rate of glioma cells; assay type: cell-based; settings: 72 h
# Text: (§1) For each concentration group, 4 replicates were set up. The whole experiment was independently repeated 3 times.
# The survival rate of rat glioma C6 cells with addition of Rg3 group, Rg3-blank group, PTX group, PTX+Rg3 group, PTX-Cho-Lipo group and PTX-Rg3-Gipo group at various concentrations respectively are listed in Table 11 and FIG. 12.
# [2] = tested on: in-situ glioma model (C6 cells); experiment: Survival curve and median survival day; assay type: in vivo, nude mice
# [3] = tested on: human gastric cancer cells (BGC-823); experiment: In vitro cell viability assay; assay type: cell-based; set-up: unit not given here
# Text: as §1
# [4] = tested on: rat C6 glioma cells; experiment: In vitro drug efficiency assay, survival rate of glioma cells; assay type: cell-based; settings: rat, 72 h
# [5] = tested on: human breast cancer cell line (4T1); experiment: In vitro drug efficacy assay, cell survival rate (Rh2/PTX groups)
# Method: Logarithmically growing tumor cells were collected and resuspended in DMEM complete medium supplemented with 10% fetal bovine serum, 100 U/ml penicillin and 100 μg/ml streptomycin to a final cell density of 4×10^4 cells/ml. Then, 200 μl cell suspension solution was seeded into each well of a 96-well plate (with a concentration of 8×10^3 cells/well) and the plate was cultured in a CO2 cell culture incubator at 37° C. […] The group without replacing DMEM complete medium by anti-cancer drug solution was used as negative control. For each concentration group, 4 replicates were set up. The whole experiment was independently repeated 3 times. The cells were continuously cultured in a CO2 cell culture incubator at 37° C. […] Then discarded the supernatant, added 150 μl DMSO into each well, and shaked the plate for 10 min. The absorbance was measured at 490 nm using a microplate reader (Tecan infinite M 200 TECAN, Switzerland). The cell survival rate is calculated according to the following formula:
smiles,measurement,setting,value
"CC(=O)O[C@H]1C(=O)[C@@]2(C)[C@H]([C@H](OC(=O)c3ccccc3)[C@]3(O)C[C@H](OC(=O)[C@H](O)[C@@H](NC(=O)c4ccccc4)c4ccccc4)C(C)=C1C3(C)C)[C@]1(OC(C)=O)CO[C@@H]1C[C@@H]2O [PTX, paclitaxel]",Cell Viability,[1]; 0.0046 μg/ml,73.2867
same,Cell Viability,[1]; 0.0412 μg/ml,60.49
same,Cell Viability,[1]; 0.1235 μg/ml,49.91
same,Cell Viability,[1]; 0.37 μg/ml,45.98
same,Cell Viability,[1]; 1.111 μg/ml,43.89
same,Cell Viability,[1]; 3.333 μg/ml,43.21
same,Median survial,[2]; tail vein 10 mg·kg^−1,27 days
same,number of survived mice,"[2]; tail vein 10 mg·kg^−1, Time 12 d",10
same,number of survived mice,"[2]; tail vein 10 mg·kg^−1, Time 14 d",10
same,number of survived mice,"[2]; tail vein 10 mg·kg^−1, Time 16 d",9
same,number of survived mice,"[2]; tail vein 10 mg·kg^−1, Time 18 d",8
same,number of survived mice,"[2]; tail vein 10 mg·kg^−1, Time 20 d",7
same,number of survived mice,"[2]; tail vein 10 mg·kg^−1, Time 22 d",6
same,number of survived mice,"[2]; tail vein 10 mg·kg^−1, Time 24 d",6
same,number of survived mice,"[2]; tail vein 10 mg·kg^−1, Time 26 d",5
same,number of survived mice,"[2]; tail vein 10 mg·kg^−1, Time 28 d",4
same,number of survived mice,"[2]; tail vein 10 mg·kg^−1, Time 30 d",4
same,number of survived mice,"[2]; tail vein 10 mg·kg^−1, Time 32 d",4
same,number of survived mice,"[2]; tail vein 10 mg·kg^−1, Time 34 d",3
same,number of survived mice,"[2]; tail vein 10 mg·kg^−1, Time 36 d",1
same,number of survived mice,"[2]; tail vein 10 mg·kg^−1, Time 38 d",1
same,number of survived mice,"[2]; tail vein 10 mg·kg^−1, Time 40 d",0
same,number of survived mice,"[2]; tail vein 10 mg·kg^−1, Time 42 d",0
same,number of survived mice,"[2]; tail vein 10 mg·kg^−1, Time 44 d",0
same,number of survived mice,"[2]; tail vein 10 mg·kg^−1, Time 46 d",0
same,number of survived mice,"[2]; tail vein 10 mg·kg^−1, Time 48 d",0
same,number of survived mice,"[2]; tail vein 10 mg·kg^−1, Time 50 d",0
same,number of survived mice,"[2]; tail vein 10 mg·kg^−1, Time 52 d",0
same,number of survived mice,"[2]; tail vein 10 mg·kg^−1, Time 54 d",0
same,number of survived mice,"[2]; tail vein 10 mg·kg^−1, Time 56 d",0
same,number of survived mice,"[2]; tail vein 10 mg·kg^−1, Time 58 d",0
same,number of survived mice,"[2]; tail vein 10 mg·kg^−1, Time 60 d",0
same,number of survived mice,"[2]; tail vein 10 mg·kg^−1, Time 62 d",0
same,Cell Viability,"[3]; listed as 1 of 9, PTX series C 0.0027-6 μg/mL ascending (8 levels)",91.9
same,Cell Viability,"[3]; listed as 2 of 9, PTX series C 0.0027-6 μg/mL ascending (8 levels)",80.5
same,Cell Viability,"[3]; listed as 3 of 9, PTX series C 0.0027-6 μg/mL ascending (8 levels)",60.9
same,Cell Viability,"[3]; listed as 4 of 9, PTX series C 0.0027-6 μg/mL ascending (8 levels)",50.3
same,Cell Viability,"[3]; listed as 5 of 9, PTX series C 0.0027-6 μg/mL ascending (8 levels)",41.6
same,Cell Viability,"[3]; listed as 6 of 9, PTX series C 0.0027-6 μg/mL ascending (8 levels)",42.7
same,Cell Viability,"[3]; listed as 7 of 9, PTX series C 0.0027-6 μg/mL ascending (8 levels)",38.0
same,Cell Viability,"[3]; listed as 8 of 9, PTX series C 0.0027-6 μg/mL ascending (8 levels)",33.2
same,Cell Viability,"[3]; listed as 9 of 9, PTX series C 0.0027-6 μg/mL ascending (8 levels)",32.2
same,Cell Viability,[4]; 0.0005 μg/ml,100
same,Cell Viability,[4]; 0.0015 μg/ml,79.49
same,Cell Viability,[4]; 0.0137 μg/ml,65.36
same,Cell Viability,[4]; 10 μg/ml,39.59
same,Cell Viability,"[5]; 4T1, C 0.00091 μM",106.72
same,Cell Viability,"[5]; 4T1, C 0.00274 μM",94.70
same,Cell Viability,"[5]; 4T1, C 0.00823 μM",59.19
same,Cell Viability,"[5]; 4T1, C 0.02469 μM",55.83
same,Cell Viability,"[5]; 4T1, C 0.07407 μM",49.25
same,Cell Viability,"[5]; 4T1, C 0.22222 μM",48.48
same,Cell Viability,"[5]; 4T1, C 0.66667 μM",48.54
same,Cell Viability,"[5]; 4T1, C 2.00000 μM",52.00
